Data published in patent US20250129334A1, “LINEAGE SPECIFICATION DURING STEM CELL TRANSITION” (Amniotics AB, priority 2021, published 2025).

Legend:
iPSC-CD34+ = experiment: NK cell cytotoxic degranulation (CD107) with or without K562 co-culture; assay type: cell-based, human; details: absence of K562; DCA 10 mM, CP 2.5 μM, cholesterol 0.5x
From the text: NK cell anti-tumour activity can occur via cytotoxic degranulation. CD107 is a marker that is present in the cytotoxic vesicles of NK cells, and so is not expressed on the cell surface of inactivated NK cells. However, upon NK cell activation and degranulation, the CD107 target becomes detectable on the cell surface. Therefore, the level of CD107 detected on NK cells correlates with cytotoxic degranulation. In this assay, several exemplary metabolic regulators were used to assess cytotoxic degranulation in a co-culture assay with K562 cells (an exemplary cancer cell model). As a negative control, iPSC-CD34^+ untreated with a metabolic regulator were used, in which a basal level of 3.27% of degranulated NK cells (CD3^−CD56^+CD16^+CD107^+ cells) were observed (FIG. 16A, top panel).

fetal liver = experiment: In vivo compound injection of pregnant mice, fetal liver analysis at E14.5
Procedure: For fetal liver analysis, pregnant female C57Bl/6xB6.SJL mice were injected intraperitoneally at E9.5 with UK5099 (4 mg/kg) or DCA (200 mg/kg) or PBS (control). Embryos were harvested at E14.5 and individually weighed and processed. Fetal livers were dissected and homogenised in 800 μL ice cold PBS supplemented with 2% fetal bovine serum (FBS) and FL cells were washed in PBS with 2%/FBS. For the differentiated lineage panel, cells were stained with B220 and CD19 (B-cell markers)-PE, CD3e-APC, Ter119-PeCy7 and CD71-FITC and analyzed on a BD FACSARIA III. For the HSC panel, samples were first treated with ammonium chloride solution (STEMCELL Technologies, France) to lyse red blood cells, washed twice in ice cold PBS with 2% FBS, stained with CD3e, B220, Ter119, Gr1 (Lineage)-PeCy5, c-Kit-Efluor780, Sca1-BV421, CD48-FITC, CD150-BV605 and 7-AAD (for dead cell exclusion) and analyzed on a BD FACSARIA III. […] For plating of CFU assays, 100 LT-HSCs were sorted (gating strategy shown in FIG. 11, e) and resuspended in 3.0 mL Methocult M3434 (STEMCELL Technologies, France). Each mixture was divided onto 2 wells of a non-tissue culture treated 6-well plate. Following a 14-day incubation in a humidified incubator at 37° C., 5% CO2, 20% O2, colonies were morphologically distinguished and scored. […] Cells were stained with anti-cKit and anti-CD45 antibodies and analyzed on a BD LSRFortessa. […]

[1] = system: HBE1, HBG1-2, HBA1-2 transcripts; experiment: Globin transcript q-PCR in CFU colonies; assay type: cell-based, human; details: normalized to KLF1, UK5099 10 μM
Procedure: Subcultured HE cells were treated with StemPro Accutase Cell Dissociation Reagent for 2 minutes at 37° C. and dissociated cells were resuspended in 3 ml Methocult H4230 (STEMCELL Technologies, France) (prepared according to manufacturer's instructions, with 20 mL Iscove's Modified Dulbecco's Medium containing 2.5 μg hSCF, 5 μg GM-CSF, 2.5 μg IL-3 and 500 U EPO). Each mixture was divided onto 2 wells of a non-tissue culture treated 6-well plate. Following a 12-day incubation in a humidified incubator at 37° C., 5% CO2, 20% O2, colonies were morphologically distinguished and scored. For globin analysis, colonies in Methocult wells were harvested with PBS, washed thoroughly and frozen in RLT buffer with β-mercaptoethanol. Following RNA extraction and RT (Qiagen), gene expression was assessed with taqman probes by q-PCR. The taqman probes used for this assay are HBA1/2 (Hs00361191_g1), HBE1 (Hs00362216_m1), HBG2/1 (Hs00361131_g1) and KLF1 (Hs00610592_m1).

| SMILES | degranulated NK cells (CD3-CD56+CD16+CD107+ cells) (iPSC-CD34+) | increase in degranulated NK cells vs untreated control (iPSC-CD34+) | frequency of phenotypic long-term HSCs (LT-HSCs) (fetal liver; LSK CD48-CD150+, UK5099 4 mg/kg, DCA 200 mg/kg) | in vivo EHT and hematopoiesis (fetal liver; UK5099 4 mg/kg i.p. at E9.5) | HBE1 (embryonic) globin transcripts [1] | HBG1-2 (fetal) globin transcripts [1] | HBA1-2 (adult globin) expression ([1]; DCA 3 mM) |
| --- | --- | --- | --- | --- | --- | --- | --- |
| O=C(O)C(Cl)Cl [DCA, dichloroacetate] | 13.8 % of the population | more than 4 fold |  |  |  |  |  |
| N#CC(=Cc1cn(-c2ccccc2)c2ccccc12)C(=O)O [UK5099, 2-Cyano-3-(1-phenyl-1H-indol-3-yl)-2-propenoic acid] |  |  | not significantly affected | did not see a significant effect | significant increase | significant increase | did not have an effect |
